Reference: patent publication US5912247A, “Quinazoline compound and anti-tumor agent containing said compound as an active ingredient” (Kanebo, Ltd., priority 1995, dated 1999)
Where a name gives a salt, the structure may show the parent alone.

Legend:
[1] = system: Colon 26 solid tumor; test: Inhibitory activity of dye accumulation in the solid tumor tissue (inhibition of the tumor blood flow); assay type: in vivo, Male BALB/c mice; design: key to Inhibitory activity of dye accumulation into solid tumor: +: The average absorbance in the test group is significantly smaller than the average absorbance in the control group.; -: There is no significant difference in the average absorbance between the test group and the control group; details: for Inhibitory activity of dye accumulation into solid tumor: intravenous, Evans blue 1 hour after administration
Description: Inhibitory activity of dye accumulation in the solid tumor tissue (inhibition of the tumor blood flow): a) Materials: Test Animal: Male BALB/c mice (weighing 21-27 g, six mice per group) Tumor: Colon 26 solid tumor b) Test Method: Colon 26 solid tumor was cut in a size of about 1 mm square. The pieces of solid tumor were treated with a 0.25% collagenase solution and 0.02% deoxyribonuclease solution at 37° C. for 1.5 hour to give a cell suspension of colon 26 solid tumor cells. The cell suspension was adjusted to 3×10^6 cells/ml and the cell suspension (100 μl) was subcutaneously inoculated on the right back of male BALB/c mice. Ten days after the transplantation, the longitudinal size of the tumor was measured, and when the longitudinal size of the tumor reached about 10 mm, the mice were randomized. To the mice in test groups, the test compound was intravenously administered in an amount of 10 mg/kg or 1.25 mg/kg. The test compound was administered in the form of a solution in saline (in the test solution of Test Compound BF and BK, an equimolar amount of fumaric acid was further added, and in the test solution of Test Compound BN, an equimolar amount of hydrochloric acid was further added). To the mice in the control group, only saline was administered intravenously. One hour after the administration, 3% Evans blue-saline solution was injected intravenously via the tail vein of the mice in a volume of 0.1 ml per 10 g of the body weight of mouse, and 5 minutes later the mice were killed by luxation of the cervical vertebrae. After removing the tumor, the tumor was weighed. To extract Evans blue, the tumor was suspensed in 0.5% aqueous sodium sulfate (1.5 ml per 1 g of the tumor) and acetone (3.5 ml per 1 g of tumor), and then the tumor was cut into small pieces. After allowing to stand at room temperature overnight, the suspension were centrifuged at 3,000 rpm for 10 minutes to extract Evans blue, and the absorbance of the supernatant was read at 630 nm. […] (-): There is no significant difference in the average absorbance between the test group and the control group.

[2] = system: St-4 solid tumor (human gastric cancer transplantable to nude mouse); test: Anti-tumor activity against human gastric cancer St-4 (solid tumor) transplanted to nude mouse; assay type: in vivo, human (in male BALB/cA JCI-nu nude mice)
Source text: Anti-tumor activity against human gastric cancer St-4 (solid tumor) transplanted to nude mouse: a) Materials: Test Animal: Male BALB/cA JCI-nu nude mice (six week old, six mice per group) Tumor: St-4 solid tumor (human gastric cancer transplantable to nude mouse) b) Test Method: St-4 solid tumor was cut to about 3 mm cubic, and the fragments were subcutaneously transplanted into the back at one side of the nude mice with a trockar. Ten days after the transplantation, the longitudinal size (L) and the size of the width direction (W) of the tumor were measured. The tumor weight was calculated by the formula: L×W×W/2, and when the weight of the tumor reached 100 mg to 300 mg, the mice were randomized. To the mice in test groups, the test compound was orally administered once a day for 40 days. The test compounds of this invention were administered in an amount of 30 mg/kg or 40 mg/kg in the form of a solution in distilled water, and No. 5666 was administered in an amount of 30 mg/kg or 100 mg/kg in the form of a suspension in 5% arabic gum solution. After the administration of the test compounds, the longitudinal size and the size in the width direction of the tumor were measured, and then the weight of tumor was calculated. The ratio of the tumor weight after treated with test compounds to the tumor weight before administration of test compounds (i.e. the relative tumor weight) was determined. As to the control group, the relative tumor weight was also determined likewise. The anti-tumor activity was evaluated in the same manner as described in Ann. Clin. Lab. Sci., 8 (1), 50 (1978). That is, the ratio of the relative tumor weight in the test group (T) to that in the control group (C) [T/C (%)] was calculated, and when the minimum of the ratio [Min.

[3] = Acute toxicity; details: mouse, in vivo, one week observation
Description: Test Animal: Male ddY mice (5 week old, five mice per group)
To male ddY mice was administered a solution of a test compound in saline intravenously, or a solution of a test compound in distilled water orally. One week after the administration, the number of death of mice was counted, and the LD50 was calculated therefrom by a probit method.

[4] = Hemolytic activity; assay type: cell-based, Male Donryu rats; details: rat, red blood cells; 20 μg/ml, 37° C., 60 minutes; read-out: hemolytic ratio
Description: (§1) Hemolytic activity: a) Materials: Test Animal: Male Donryu rats Test Compounds: The same as in Experiment 1 b) Test Method: Blood (about 6 ml or more) was collected from abdominal large vein of male Donryu rats, which was taken in a test tube containing dipotassium ethylenediamine tetraacetate (10 mg). The blood thus collected was divided into each 2 ml, which was centrifuged at 3,000 rpm for 5 minutes. After removing the supernatant, a 150 mM phosphate buffer (pH 7.4) (10 ml) was added thereto, and the mixture was mildly mixed. The mixture was centrifuged at 3,000 rpm for 5 minutes, followed by washing with the same phosphate buffer as above. This procedure was repeated twice. Finally, the same phosphate buffer was added thereto to prepare a test blood cell suspension. The test compound was dissolved in a saline solution in a concentration of 2 mg/ml in case of No. 5666, and of 20 mg/ml in case of the test compounds of this invention. […] Immediately after the incubation, the mixture was centrifuged at 3,000 rpm for 5 minutes, and the supernatant (each 200 μl) was added to a well of a 96 well microplate (an immunoassay plate with plane bottom), and the absorbance (OD: optical density) was read with a microplate reader (at a wavelength of 550 nm). […] The hemolytic rate was calculated by the following equation: [formula] […]

[5] = system: test blood cell suspension; test: Hemolytic activity; assay type: cell-based, Male Donryu rats; details: 20 μg/ml
Description: as §1

Structure (SMILES) | Inhibitory activity of dye accumulation into solid tumor ([1]; 1.25 mg/kg) | Inhibitory activity of dye accumulation into solid tumor ([1]; 10 mg/kg) | Evaluation ([2]; 30 mg/kg (po) (× 40 days)) | Min. T/C (%) ([2]; 30 mg/kg (po) (× 40 days)) | other results
CC(=O)O.O[C@@H]1COC[C@H]1Oc1nc(N2CCNCC2)nc2ccccc12 [Compound AI, 4-[(3R,4R)-(4-Hydroxytetrahydrofuran-3-yl)oxy]-2-(1-piperazinyl)quinazoline monoacetate] | + | + |  |  | Evaluation ([2]; 40 mg/kg (po) (× 40 days)): Effective (when the minimum of the ratio [Min. T/C (%)] was less than 42%, the test compound was evaluated as "effective"); Min. T/C (%) ([2]; 40 mg/kg (po) (× 40 days)): 31.7%
O[C@@H]1C[C@@H](Oc2nc(N3CCNCC3)nc3ccccc23)C[C@@H]1O [Compound AM, 4-[(t-3,t-4-Dihydroxycyclopentan-r-1-yl)oxy]-2-(1-piperazinyl)quinazoline monohydrochloride] | + | + | Effective (when the minimum of the ratio [Min. T/C (%)] was less than 42%, the test compound was evaluated as "effective") | 36.1 | LD50 at 168 h ([3]; Intravenous injection): 101 mg/kg; LD50 at 168 h ([3]; Oral administration): > 500 mg/kg
Cl.OC[C@@H](O)CCOc1nc(N2CCNCC2)nc2ccccc12 [Compound BI, 4-[(3S)-(3,4-Dihydroxybutan-1-yl)oxy]-2-(1-piperazinyl)quinazoline monohydrochloride] | + | + |  |  | 
Cl.OC[C@H](O)CCOc1nc(N2CCNCC2)nc2ccccc12 [Compound BJ, 4-[(3R)-(3,4-Dihydroxybutan-1-yl)oxy]-2-(1-piperazinyl)quinazoline monohydrochloride] | + | + | Effective (when the minimum of the ratio [Min. T/C (%)] was less than 42%, the test compound was evaluated as "effective") | 38.8 | LD50 at 168 h ([3]; Intravenous injection): 118 mg/kg; LD50 at 168 h ([3]; Oral administration): > 1000 mg/kg
Cl.OC[C@H](O)[C@@H](O)COc1nc(N2CCNCC2)nc2ccccc12 [Compound BL, 4-[(2S,3S)-(2,3,4-Trihydroxybutan-1-yl)oxy]-2-(1-piperazinyl)quinazoline monohydrochloride] | + | + |  |  | 
Cl.OC[C@@H](O)[C@H](O)COc1nc(N2CCNCC2)nc2ccccc12 [Compound BM, 4-[(2R,3R)-(2,3,4-Trihydroxybutan-1-yl)oxy]-2-(1-piperazinyl)quinazoline monohydrochloride] | + | + |  |  | 
OC[C@@H](O)COc1nc(N2CCNCC2)nc2ccccc12 [Compound BN, 4-[(2R)-(2,3-Dihydroxypropan-1-yl)oxy]-2-(1-piperazinyl)quinazoline] | + |  |  |  | 
C=CCN1CCN(c2nc(OCCCCC)c3ccccc3n2)CC1.O=C(O)/C=C/C(=O)O [No. 5666, 2-(4-Allylpiperazin-1-yl)-4-[(1-pentyl)oxy]-quinazoline monofumarate, reference compound] | - | + | Non-effective | 59.7 | inhibition of the flow of blood into tumor tissue / dye accumulation (in words) ([1]; mouse solid tumor (colon 26)): has such an inhibitory activity; Evaluation ([2]; 100 mg/kg (po) (× 40 days)): Effective (when the minimum of the ratio [Min. T/C (%)] was less than 42%, the test compound was evaluated as "effective"); Min. T/C (%) ([2]; 100 mg/kg (po) (× 40 days)): 29.9%; hemolysis at 1 h [4]: 38%; hemolytic activity (in words) [5]: induced hemolytic activity
